Data as given in ChEMBL document CHEMBL1157282, “Cytotoxic constituents from the stem bark of Dichapetalum gelonioides collected in the Philippines” (J Nat Prod, 2006).
Converted amounts (≈) assume the structure as drawn.

Experiments:
Lu1 = assay: Cytotoxicity against human Lu1 cells; type: functional; conditions: read-out: ED50 (the source's name)
[1] = Cytotoxicity against human BC1 cells; type: functional; conditions: read-out: ED50 (the source's name)
KB [2] = assay: Cytotoxicity against human KB cells; type: functional; conditions: read-out: ED50 (the source's name)
LNCaP = assay: Cytotoxicity against human LNCaP cells; type: functional; conditions: read-out: ED50 (the source's name)
SK-N-SH = assay: Cytotoxicity against human SKNSH cells; type: functional; conditions: read-out: ED50 (the source's name)
Col2 = assay: Cytotoxicity against human Col2 cells; type: functional; conditions: read-out: ED50 (the source's name)
KB [3] = assay: Cytotoxicity against drug-resistant human KB cells in presence of vinblastine; type: functional; conditions: read-out: ED50 (the source's name)
SW626 = assay: Cytotoxicity against human SW626 cells; type: functional; conditions: read-out: ED50 (the source's name)
KB [4] = assay: Cytotoxicity against drug-resistant human KB cells in absence of vinblastine; type: functional; conditions: read-out: ED50 (the source's name)
[5] = Cytotoxicity against human MEL1 cells; type: functional; conditions: read-out: ED50 (the source's name)
[6] = Cytotoxicity against human MEL2 cells; type: functional; conditions: read-out: ED50 (the source's name)
[7] = Cytotoxicity against HUVEC cells; type: cell-based; conditions: human, read-out: ED50 (the source's name)
MCF7 = assay: Cytotoxicity against human MCF7 cells; type: functional; conditions: read-out: ED50 (the source's name)
L1210 = assay: Cytotoxicity against mouse L1210 cells; type: functional

Row | Structure (SMILES) | EC50 (Lu1) | EC50 [1] | EC50 (KB [2]) | EC50 (LNCaP) | EC50 (SK-N-SH) | EC50 (Col2) | EC50 (KB [3]) | EC50 (SW626) | EC50 (KB [4]) | EC50 [5] | EC50 [6] | CC50 [7] | EC50 (MCF7) | EC90 (L1210)
1 | C=C1C(=O)C(O)=C[C@@H]2[C@@]3(C)CC[C@](C)(C(=O)OC)C[C@@H]3CC[C@]12C | 1.6 µg/mL (≈ 4.81 µM) | 0.6 µg/mL (≈ 1.8 µM) | 0.7 µg/mL (≈ 2.11 µM) | 0.9 µg/mL (≈ 2.71 µM) | 0.8 µg/mL (≈ 2.41 µM) | 0.8 µg/mL (≈ 2.41 µM) | 1.7 µg/mL | 1.6 µg/mL (≈ 4.81 µM) | 1.8 µg/mL (≈ 5.41 µM) |  |  |  |  | 
2 | C[C@H]1C(=O)CC[C@H]2[C@]3(C)CC[C@@]4(C)[C@@H]5CC(C)(C)CC[C@]5(CO)CC[C@]4(C)[C@H]3C[C@@H](O)[C@]12C | > 20 µg/mL | > 20 µg/mL | > 20 µg/mL | > 20 µg/mL | 13 µg/mL (≈ 28.3 µM) | > 20 µg/mL | > 20 µg/mL | > 20 µg/mL | > 20 µg/mL |  |  |  |  | 
3 | C=C1C(=O)C(O)=C[C@@H]2[C@@]3(C)CC[C@](C)(C(=O)O)C[C@@H]3CC[C@]12C | 3.8 µg/mL (≈ 11.9 µM) | 4 µg/mL (≈ 12.6 µM) | 3.7 µg/mL (≈ 11.6 µM) | 3.7 µg/mL (≈ 11.6 µM) | 9 µg/mL (≈ 28.3 µM) | 2.7 µg/mL (≈ 8.48 µM) | 4.3 µg/mL | 5 µg/mL (≈ 15.7 µM) | 5 µg/mL (≈ 15.7 µM) |  |  |  |  | 
4 | CC1=C(O)C(=O)C[C@@H]2[C@@]3(C)CC[C@](C)(C(=O)O)C[C@@H]3CC[C@]12C | > 20 µg/mL | 12.2 µg/mL (≈ 38.1 µM) | 16.2 µg/mL (≈ 50.6 µM) | 10.8 µg/mL (≈ 33.7 µM) | 10.4 µg/mL (≈ 32.5 µM) | 11.2 µg/mL (≈ 35 µM) | > 20 µg/mL | 15.8 µg/mL (≈ 49.3 µM) | > 20 µg/mL |  |  |  |  | 
5 | C=C(C)[C@@H]1CC[C@]2(C(=O)O)CC[C@]3(C)[C@H](CC[C@@H]4[C@@]5(C)CC[C@H](O)C(C)(C)[C@@H]5CC[C@]43C)[C@@H]12 [BETULINIC ACID] | > 20 µg/mL | > 20 µg/mL | > 20 µg/mL | > 20 µg/mL | > 20 µg/mL | > 20 µg/mL | > 20 µg/mL | > 20 µg/mL | > 20 µg/mL | 1.1 µg/mL (≈ 2.41 µM) | 2 µg/mL (≈ 4.38 µM) |  |  | 
6 | C/C(=C\[C@H]1C[C@@H]([C@@H]2CC[C@]34C[C@]23C=C[C@@H]2[C@@]3(C)CC=C5C[C@@H](c6ccccc6)OC[C@]5(C)[C@@H]3C[C@@H](O)[C@]24C)C(=O)O1)CO [DICHAPETALIN A] | 4.1 µg/mL (≈ 7.01 µM) | > 20 µg/mL | 3.6 µg/mL (≈ 6.16 µM) | 7 µg/mL (≈ 12 µM) | 6.9 µg/mL (≈ 11.8 µM) | 6.1 µg/mL (≈ 10.4 µM) | 11.6 µg/mL | 0.2 µg/mL (≈ 0.342 µM) | > 20 µg/mL |  |  | 5.5 µg/mL (≈ 9.4 µM) | 2.1 µg/mL (≈ 3.59 µM) | < 0.0001 µg/mL
7 | C/C(=C\[C@H]1C[C@@H]([C@@H]2CC[C@]34C[C@]23[C@H](O)C[C@@H]2[C@@]3(C)CC=C5C[C@@H](c6ccccc6)OC[C@]5(C)[C@@H]3C[C@@H](O)[C@]24C)C(=O)O1)CO [DICHAPETALIN I] | 7.6 µg/mL (≈ 12.6 µM) | > 20 µg/mL | 16.6 µg/mL (≈ 27.5 µM) | > 20 µg/mL | 9.9 µg/mL (≈ 16.4 µM) | 4.1 µg/mL (≈ 6.8 µM) | > 20 µg/mL | 0.5 µg/mL (≈ 0.829 µM) | > 20 µg/mL |  |  |  |  | 
8 | COc1ccc([C@@H]2CC3=CC[C@]4(C)[C@H]5C[C@@H](O)[C@]67C[C@]6(CC[C@H]7[C@@H]6C[C@H](/C=C(\C)CO)OC6=O)[C@]5(C)[C@H](O)C[C@H]4[C@@]3(C)CO2)cc1 [DICHAPETALIN J] | 14.5 µg/mL (≈ 22.9 µM) | > 20 µg/mL | 16.4 µg/mL (≈ 25.9 µM) | 16.4 µg/mL (≈ 25.9 µM) | 4 µg/mL (≈ 6.32 µM) | 2.1 µg/mL (≈ 3.32 µM) | > 20 µg/mL | 0.4 µg/mL (≈ 0.632 µM) | > 20 µg/mL |  |  |  |  | 
9 | COc1ccc([C@@H]2CC3=CC[C@]4(C)[C@H]5C=C[C@]67C[C@]6(CC[C@H]7[C@@H]6C[C@H](/C=C(\C)CO)OC6=O)[C@]5(C)[C@H](O)C[C@H]4[C@@]3(C)CO2)cc1 [DICHAPETALIN K] | 1 µg/mL (≈ 1.63 µM) |  |  | 2.6 µg/mL (≈ 4.23 µM) |  |  |  | 3 µg/mL (≈ 4.88 µM) |  |  |  | 2.2 µg/mL (≈ 3.58 µM) | 1 µg/mL (≈ 1.63 µM) | 
10 | C/C(=C\[C@H]1C[C@@H]([C@@H]2CC[C@]34C[C@]23CC[C@@H]2[C@@]3(C)CC=C5C[C@@H](c6ccccc6)OC[C@]5(C)[C@@H]3C[C@@H](O)[C@]24C)C(=O)O1)CO [DICHAPETALIN L] | 1 µg/mL (≈ 1.7 µM) |  |  | 1.1 µg/mL (≈ 1.87 µM) |  |  |  | 8.3 µg/mL (≈ 14.1 µM) |  |  |  | 4.2 µg/mL (≈ 7.16 µM) | 2.1 µg/mL (≈ 3.58 µM) | 
11 | C[C@H]1C(=O)CC[C@H]2[C@]3(C)CC[C@@]4(C)[C@@H]5CC(C)(C)CC[C@]5(C)CC[C@]4(C)[C@H]3C[C@@H](O)[C@]12C [ZEYLANOL] | 10.9 µg/mL (≈ 24.6 µM) | > 20 µg/mL | > 20 µg/mL |  | 16.8 µg/mL (≈ 37.9 µM) | > 20 µg/mL | > 20 µg/mL | > 20 µg/mL | > 20 µg/mL |  |  |  |  | 
